The results in this text go back to US6893829B2, “Human leukocyte 12-lipoxygenase and its role in the pathogenesis of disease states” (City of Hope, priority 1992, dated 2005).

In one test the test system is MO binding to HAEC. In words: Monocyte binding to human aortic endothelial cells. It is filed as cell-based. The method, then: The rate of atherosclerosis is accelerated in humans with diabetes mellitus (DM). Applicants recently published evidence that high glucose (HG) exposure of human aortic endothelial cells (HAEC) selectively increases monocyte (MO) but not neutrophil binding (56). HG exposure to EC can increase arachidonic acid (AA) release and lipoxygenase (LO) production formation. In the current study, applicants evaluated the role of 12- and 15-LO products in MO binding to HAEC. Culture of HAEC in HG (25 mM) for two passages increased MO binding compared to cells maintained in 5.5 mM glucose (239±30 cells/field HG vs 111±7, p<0.01). Phenidone (10^−6M), an inhibitor of the 12-LO pathway (50 percent inhibition of HG-induced binding, p<0.05). […] 12(S)-HETE added to HAEC cultured in 5.5 mM glucose increased MO binding (66±6 cells/field control vs 114±4 12-HETE 10^−10M, p<0.01). […] In summary, (1) elevated glucose increases MO binding to HAEC and this effect can be reduced by blockade of the LO pathway; (2) 12 but not 15-LO products, can increase MO binding.

The nature of test [1]: Calcium gluconate infusion: urinary PGI2 and 12-HETE. It is filed as in vivo, human. The text has this: Vascular tissue from diabetic animals and man metabolize arachidonic acid differently from normals. PGI2 is a vasodilator, antithrombolic, and renin secretagogue while 12-hydroxyeicosatetraenoic acid (12-HETE) is proinflammatory and inhibits cyclooxygenase (CO). Applicants earlier reported a prostacyclin (PGI2) deficiency in diabetics with hyporeinemic hypoaldosteronism (HH) (46). Applicants explored the production of the CO product, PGI2 and the lipoxygenase (LO) product, 12-HETE in NIDDM patients with normal renal function (NR), those with microalbuminuria (MiA0, macroabluminuria (MaA) and HH patients. PGI2 (6 keto PGF^1) and 12-HETE were measured in urine by HPLC followed by RIA using published methods. Results are:
Low dose calcium infusions have been previously shown to increase PGI2, probably via activation of tissue phospholipases. […] This supports the concept that a defect in prostacyclin formation exists in NIDDM.

The test system of another test is MCF-7 cells. The experiment in a line: Proliferation of MCF-7 cells. Format: cell-based, human. The settings on record: baicalein 10 μM, CDC 10^−5M, NDGA 30 μM, ibuprofen 10^−5M.
For test [2], the system named is VEGF protein in MCF-7 cells. The experiment in a line: VEGF protein expression in breast cancer cells (immunoblot). Format: cell-based, human. The settings on record: MCF-7, 24 hours. The method, then:
FIG. 8 illustrates the dose-dependent effect of platelet-derived growth factor (PDGF) on vascular endothelial growth factor (VEGF) protein (42 kD) expression in MCF-7 breast cancer cells. Nearly confluent MCF-7 cells were serum starved for 24 hours by placing in DME medium+0.4% FCS and 0.2% BSA. This medium was then freshly replaced and the cells incubated for another 24 hours with PDGF. At the end of the incubation, the cell monolayers were washed with ice-cold PBS, scraped into PBS and pelleted by centrifugation. The cell pellets were then lysed and equal amounts of protein (50 μg) subjected to electrophoresis and immunoblotting to detect VEGF using a specific antibody from Santa Cruz Biotechnology. Detection was by a chemiluminiscent technique.
FIG. 9 illustrates the effect of epidermal growth factor (EGF) and the 12-lipoxygenase product 12-HETE on VEGF protein expression in the MCF-7 breast cancer cell line MCF-7. MCF-7 cells were treated with EGF and 12-HETE for 24 hours and VEGF protein identified as described in the legend to FIG. 8.
A general note: A western blot detects proteins with antibodies after separation by electrophoresis.

In another test the test system is 12-LO activity in HSMC. The experiment in a line: 12-HETE release and cell-associated 12-HETE in HSMC (HPLC/RIA). Format: cell-based, human. The settings on record: baicalein 10^−5 mol/L, data not shown. The method, then: FIG. 3A illustrates the effect of AII on 12-HETE release by HSMC. HSMC were grown to confluency. Serum was removed and cells were incubated in media 199 containing 0.4% fetal bovine serum (FBS) and 0.2% BSA for 18 hours. Cells were then washed with DME media and incubated for 20 minutes in DME media containing 0.2% BSA. AII was added to the cells for five and ten minutes at the concentrations of 10^−9 and 10^−8 mol/L. Media were collected for HETE assay. • *p<0.05 vs control n=4
FIG. 3B illustrates the effect of AII on cell-associated 12-HETE levels in HSMC. After collecting supernatants, cells were washed with ice-cold PBS and harvested by scraping for the assay of cell-associated HETEs. • *p<0.02 vs control n=4
HSMC and HAEC monolayers were washed twice with ice-cold PBS and then processed for RNA extraction or western analysis as described below. For hydroxyeicosatetraenoic acid (HETE) assay, approximately 24 hours prior to an experiment, the medium was replaced with medium 199 containing 0.4% FBS and 0.2% BSA.
These assays were performed using previously published methods (10,11). Briefly, 12- and 15-HETE are extracted from supernatants and cells on C18 mini columns (Analytichem International, CA) and measured using our validated reverse phase gradient HPLC and (RIA) methods.
Another major aspect of this invention is the discovery that AII increases the activity and expression of 12-LO mRNA and protein in HSMC.

For a further test, the system named is MAP kinase activity. The experiment in a line: AII- and 12-HETE-induced mitogenic (MAP kinase) activities with 12-LO inhibitors. Format: cell-based, Chinese hamster. The method, then:
It has been discovered that the administration of AII results in biphasic activation of MAP kinase (all of the MAP kinase experiments were conducted in CHO-AT1a cells—AII receptor AT1a cDNA transfected Chinese hamster ovary cells). […] Thus, the administration of a 12-LO inhibitor decreases AII- and/or 12-HETE-induced MAP kinase activity, thereby decreasing the effects which AII and/or 12-HETE have on cell growth and development.

The test system of test [3] is beta sub-unit of the human insulin receptor. The experiment in a line: Insulin receptor phosphorylation in rat-1-fibroblasts containing the human insulin receptor. Format: cell-based. The settings on record: baicalein 10^−6M, last 24 hours. The method, then:
7. Baicalein, a selective 12-LO inhibitor, can prevent glucose-induced insulin resistance. To perform these studies, applicants cultured rat-1-fibroblasts that have been engineered to contain the human insulin receptor for ten days in high glucose (25 mM). For the last 24 hours, the cells were cultured with 10^−6M baicalein. The marked bands represent the phosphorylated beta sub-unit of the human insulin receptor (FIG. 23). As the band becomes lighter, it represents reduced insulin action. Lane 1 represents the insulin receptor phosphorylation in normal glucose (5.5 mM) vs the reduced insulin action in lane 5 (25 mM glucose).

Test [4] deals with 12-HETE in L6 muscle cells. The experiment in a line: 12-HETE in L6 muscle cells. Format: cell-based, rat. The note with it: n = 2. The method, then:
6. […] L6 muscle cells are skeletal muscle cells from rats which have been used to investigate the mechanisms of insulin action. When L6 muscle cells are incubated in xylose (5.5, mM), they are much more responsive to insulin when compared to cells in regular glucose (5.5 mM) or high glucose (25 mM). […] Thus, elevated 12-Lipoxygenase products, such as 12-HETE, appear to play an important role in reduced insulin metabolic actions caused by high glucose.

In test [5] the test system is VEGF in vascular smooth muscle cells (VSMC). In words: VEGF protein, mRNA and secretion in VSMC (Western, Northern, EIA). Format: cell-based, Porcine and human. The method, then: In addition to the work reflected in FIGS. 8-10, it has now been discovered that AII, 12-HETE and hyperglycemia (HG) increase VEGF production in vascular smooth muscle cells (VSMC). Porcine and human VSMC were cultured for at least two passages under normal glucose (NG, 5.5 mM) or under HG conditions. VEGF protein expression was determined by Western blotting and VEGF mRNA by Northern blots. HG alone increased the level of VEGF mRNA (2.8-fold) and protein (3.2-fold). […] In addition, HG increased the secretion of VEGF into the medium as measured by a specific EIA (56.2±4 ng/ml NG vs 73±5 HG, p<0.02).

[6] abbreviates: NIDDM patients with microalbuminuria.
Where [7] appears, read: normal subjects, three hour infusion.

The inhibition is the percentage by which the read-out fell short of the control.

Consider 12(R)-Hydroxyeicosatrienoic acid, for which the “lowest concentration showing effects on MO binding” value in the test with MO binding to HAEC is 10^−12 M.
Regarding calcium gluconate, in test [1] (setting [6]), the 12-HETE result is on record as “further stimulation” and the PGI2 result is on record as “no increase”. For the same compound, in [1] (setting [7]), the 12-HETE entry is “highly significant increase” and the PGI2 entry was “highly significant increase”.
Consider `CC(C)Cc1ccc(C(C)C(=O)O)cc1` (centres unmarked) [ibuprofen], for which the “proliferation of MCF-7 cells” value in the test on MCF-7 cells is recorded as “not”.
For PDGF, in test [2], the VEGF protein expression entry is listed as “dose-dependent increase”.
For the compound `O=c1cc(-c2ccccc2)oc2cc(O)c(O)c(O)c12` [baicalein], the “12-HETE levels in response to AII” value with 12-LO activity in HSMC is recorded as “could be reduced”. The “proliferation of MCF-7 cells” value with MCF-7 cells was “significantly inhibited”. In addition, in the test on MAP kinase activity, the “AII- and 12-HETE-induced mitogenic activities” value was “dose-dependently reduce”. Further, the “insulin receptor phosphorylation in 25 mM glucose” value in test [3] is listed as “restoration of insulin receptor phosphorylation”.
As for `N#C/C(=C\c1ccc(O)c(O)c1)C(=O)OC/C=C/c1ccccc1` [CDC], the “proliferation of MCF-7 cells” value in the test with MCF-7 cells is on record as “significantly inhibited”. Also, in the test on MAP kinase activity, the “AII- and 12-HETE-induced mitogenic activities” value was “dose-dependently reduce”.
Consider `CC(Cc1ccc(O)c(O)c1)C(C)Cc1ccc(O)c(O)c1` (centres unmarked) [NDGA], for which the “proliferation of MCF-7 cells” value in the test with MCF-7 cells is listed as “significantly inhibited”.
For `O=C1CCN(c2ccccc2)N1` [Phenidone], the inhibition at 1 µM with MO binding to HAEC (Homo sapiens, Phenidone 10^−6M, read-out: inhibition of HG-induced MO binding) was 50%.
In the case of `CCCCC[C@H](O)/C=C/C=C\C/C=C\C/C=C\CCCC(=O)O` [15(S)-HETE], the “MO binding to HAEC” value in the test on MO binding to HAEC (15(S)-HETE 10^−6 to 10^−12M) was “did not stimulate”.
With `O=C[C@H](O)[C@@H](O)[C@H](O)CO` [Xylose, xylose], in test [4] (xylose 5.5 mM), the “12-HETE in the cells” value worked out at 398 pg/total cells and the “12-HETE release in the media” value was determined as 53.2 pg/mL.
Turning to `O=C[C@H](O)[C@@H](O)[C@H](O)[C@H](O)CO` [HG, glucose], in test [4] (high glucose 25 mM), the “12-HETE in the cells” value is 620 pg/total cells and the “12-HETE release in the media” value is 110.3 pg/mL. In addition, in [4] (regular glucose 5.5 mM), the “12-HETE in the cells” value amounted to 472 pg/total cells and the “12-HETE release in the media” value amounted to 101.8 pg/mL. In addition, the MO binding with MO binding to HAEC (HAEC in HG 25 mM for two passages, 5.5 mM glucose 111±7) amounted to 239±30 cells/field. Also, in test [5] (HG alone vs NG 5.5 mM), the “level of VEGF mRNA” value was 2.8 fold and the “level of VEGF protein” value came out at 3.2 fold. In addition, in test [5] (HG, NG 56.2±4), the “secretion of VEGF into the medium (EIA)” value was 73 ± 5 ng/mL.
